Test results taken from ChEMBL document CHEMBL1201862, “PubChem BioAssay data set” (2004).
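How tested: cells in 96-well plates exposed to compound for 48 hours at five concentrations. GI50 = concentration required for 50% inhibition of growth.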 Activity calls are given as the source filed them. Rule as the data show it: active = GI50 up to about 1.1 µM and inactive = higher.

What was measured:
Experiment in all cases: NCI tumour cell line growth inhibition, 48 h
M19-MEL = system: M19-MEL
UO-31 = system: UO-31
SW-620 = system: SW-620
HCC 2998 = system: HCC 2998
SNB-19 = system: SNB-19
K562 = system: K562
HCT-116 = system: HCT-116
RPMI-8226 = system: RPMI-8226
NCI-H460 = system: NCI-H460
SR = system: SR
IGROV-1 = system: IGROV-1
UACC-62 = system: UACC-62
OVCAR-8 = system: OVCAR-8
TK-10 = system: TK-10
HT-29 = system: HT-29
HOP-92 = system: HOP-92
CAKI-1 = system: CAKI-1

Measured: GI50

CCC(Oc1ccc(OC)c2ccccc(=O)c12)C(=O)O (configuration not stated)
inactive: M19-MEL > 100 µM | UO-31 > 100 µM | SW-620 > 100 µM | HCC 2998 > 100 µM | SNB-19 > 100 µM | K562 > 100 µM | HCT-116 > 100 µM | RPMI-8226 > 100 µM | NCI-H460 > 100 µM | SR > 100 µM | IGROV-1 > 100 µM | UACC-62 > 100 µM | OVCAR-8 > 100 µM | TK-10 > 100 µM | HT-29 > 100 µM

CC(=O)Nc1cc(N(CCOS(C)(=O)=O)CCOS(C)(=O)=O)ccc1N=O
inactive: M19-MEL > 100 µM | UO-31 > 100 µM | HOP-92 > 100 µM | SW-620 > 100 µM | HCC 2998 > 100 µM | SNB-19 > 100 µM | K562 > 100 µM | HCT-116 > 100 µM | CAKI-1 > 100 µM | RPMI-8226 > 100 µM | NCI-H460 > 100 µM | SR > 100 µM | IGROV-1 > 100 µM | UACC-62 > 100 µM | OVCAR-8 > 100 µM | TK-10 > 100 µM | HT-29 > 100 µM

COc1ccc(OCC(=O)O)c(C(=O)CCC(=O)O)c1
inactive: M19-MEL > 100 µM | UO-31 > 100 µM | HOP-92 > 100 µM | SW-620 > 100 µM | HCC 2998 > 100 µM | SNB-19 > 100 µM | K562 > 100 µM | HCT-116 > 100 µM | RPMI-8226 > 100 µM | NCI-H460 > 100 µM | SR > 100 µM | IGROV-1 > 100 µM | UACC-62 > 10 µM | OVCAR-8 > 100 µM | TK-10 > 100 µM | HT-29 > 100 µM

OCCCOC(c1ccccc1)(c1ccccc1)c1ccccc1
inactive: M19-MEL > 100 µM | UO-31 47 µM | HOP-92 20.6 µM | SW-620 > 100 µM | HCC 2998 > 100 µM | K562 > 100 µM | HCT-116 50.7 µM | CAKI-1 > 100 µM | RPMI-8226 > 100 µM | NCI-H460 > 100 µM | SR > 100 µM | IGROV-1 > 100 µM | UACC-62 88.5 µM | OVCAR-8 > 100 µM | TK-10 > 100 µM | HT-29 24.3 µM

O=CN/C=C/c1cc(O)ccc1O [ERBSTATIN]
inactive: M19-MEL 13.3 µM | UO-31 29.7 µM | HOP-92 11.6 µM | SW-620 8.75 µM | HCC 2998 > 100 µM | SNB-19 > 66.7 µM | K562 14.8 µM | HCT-116 15.7 µM | CAKI-1 12.4 µM | RPMI-8226 26.3 µM | NCI-H460 56.2 µM | SR 4.39 µM | IGROV-1 26.2 µM | UACC-62 13.7 µM | OVCAR-8 17.8 µM | TK-10 17 µM | HT-29 22.2 µM

CCOC(=O)C(C)(NC(=O)c1ccc(NCc2ccc3nc(NC(=O)c4ccccc4)nc(NC(=O)c4ccccc4)c3c2)cc1)C(=O)OCC
inactive: M19-MEL 8.93 µM | UO-31 18.1 µM | HOP-92 5.62 µM | SW-620 11.7 µM | HCC 2998 25.8 µM | HCT-116 6.97 µM | CAKI-1 8.02 µM | RPMI-8226 18.3 µM | NCI-H460 14.5 µM | SR 34.9 µM | IGROV-1 19.9 µM | UACC-62 8.49 µM | OVCAR-8 4.68 µM | TK-10 19.9 µM | HT-29 13.3 µM

COC(=O)C(=O)C(C(=O)OC)C(=O)C(=O)Nc1c(C)cccc1C (configuration not stated)
inactive: M19-MEL > 100 µM | UO-31 > 100 µM | HOP-92 41.6 µM | SW-620 > 100 µM | HCC 2998 > 100 µM | SNB-19 > 100 µM | K562 > 100 µM | HCT-116 > 100 µM | CAKI-1 > 100 µM | RPMI-8226 > 100 µM | NCI-H460 > 100 µM | SR > 100 µM | IGROV-1 > 100 µM | UACC-62 > 100 µM | OVCAR-8 > 100 µM | TK-10 > 100 µM | HT-29 > 100 µM

COc1ccccc1N1C(=O)/C(=C/c2ccc(N(CCC#N)CCC#N)cc2C)N=C1c1cc([N+](=O)[O-])ccc1Cl
inactive: M19-MEL 24.2 µM | UO-31 > 100 µM | HCC 2998 > 100 µM | SNB-19 > 100 µM | K562 > 100 µM | HCT-116 > 100 µM | CAKI-1 > 100 µM | RPMI-8226 > 100 µM | NCI-H460 > 100 µM | SR > 100 µM | IGROV-1 > 100 µM | OVCAR-8 > 100 µM | TK-10 > 100 µM | HT-29 > 100 µM

NCCCC(N)(C(=O)O)C(F)F (configuration not stated) [EFLORNITHINE]
inactive: M19-MEL > 3450 µM | UO-31 > 5000 µM | HOP-92 > 1890 µM | SW-620 > 5000 µM | HCC 2998 > 5000 µM | SNB-19 > 5000 µM | K562 > 2880 µM | HCT-116 815 µM | CAKI-1 1570 µM | RPMI-8226 > 5000 µM | NCI-H460 933 µM | SR > 100 µM | IGROV-1 > 5000 µM | UACC-62 > 5000 µM | TK-10 > 100 µM | HT-29 > 2790 µM

CN(c1ccccc1)C(c1ccccc1)C(O)c1ccccc1 (configuration not stated)
inactive: M19-MEL 23.1 µM | UO-31 21.3 µM | HOP-92 29.9 µM | SW-620 18.4 µM | HCC 2998 22.9 µM | SNB-19 16.8 µM | K562 17.2 µM | HCT-116 18.6 µM | CAKI-1 20.5 µM | RPMI-8226 20.8 µM | NCI-H460 20.1 µM | SR 20.6 µM | IGROV-1 22.2 µM | UACC-62 17.9 µM | OVCAR-8 19.2 µM | TK-10 24.2 µM | HT-29 17.9 µM

Cc1cc(NC(=O)C2C3C=CC(O3)C2C(=O)O)no1 (configuration not stated)
inactive: M19-MEL 28.1 µM | UO-31 > 100 µM | HOP-92 > 100 µM | SW-620 1.5 µM | HCC 2998 > 100 µM | SNB-19 > 100 µM | K562 22.2 µM | HCT-116 17 µM | RPMI-8226 16.6 µM | NCI-H460 31.7 µM | SR 21.8 µM | IGROV-1 > 100 µM | UACC-62 > 100 µM | OVCAR-8 16.2 µM | TK-10 > 100 µM | HT-29 34.6 µM

COc1ccccc1/C=N/N=C(\N)NO
inactive: M19-MEL 19.8 µM | UO-31 7.18 µM | HOP-92 11 µM | SW-620 21.3 µM | HCC 2998 4.68 µM | SNB-19 > 100 µM | K562 3.65 µM | HCT-116 25.6 µM | CAKI-1 7.28 µM | RPMI-8226 29.2 µM | NCI-H460 4.14 µM | SR 31.8 µM | IGROV-1 96.4 µM | UACC-62 4.21 µM | OVCAR-8 > 10 µM | HT-29 18.6 µM
